Assay in all cases: area under dose-response viability curve (log dose) (AUC (arbitrary)); higher = less sensitive
Holding throughout (settings): 72 h

Compound in one assay: CC(C)[C@H](C(=O)Nc1ccc(C(=O)NO)cc1)c1ccccc1 [AR-42]
The method, then:
(§1)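 Primary AML blasts from patients (3q26 EVI1-high and other AML) were treated for 72 h with a dose series of each drug. Viability was measured with an ATP-based CellTiter-Glo assay. The area under the curve of the log-transformed dose-response data was computed in GraphPad Prism; a lower AUC means greater sensitivity.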

Compound in another assay: CC[C@]1(O)C[C@H]2CN(CCc3c([nH]c4ccccc34)[C@@](C(=O)OC)(c3cc4c(cc3OC)N(C=O)[C@H]3[C@@](O)(C(=O)OC)[C@H](OC(C)=O)[C@]5(CC)C=CCN6CC[C@]43[C@@H]65)C2)C1 [Vincristine]
As for the experimental part: as §1

Compound in the next assay: O=C(/C=C/c1cccc(S(=O)(=O)Nc2ccccc2)c1)NO [Belinostat]
The method, then: as §1

Compound in the next assay: COc1cccc2c1C(=O)c1c(O)c3c(c(O)c1C2=O)C[C@@](O)(C(C)=O)C[C@@H]3O[C@H]1C[C@H](N)[C@H](O)[C@H](C)O1 [Daunorubicine]
As for the experimental part:
as §1

Compound in the next assay: CN(Cc1cnc2nc(N)nc(N)c2n1)c1ccc(C(=O)N[C@@H](CCC(=O)O)C(=O)O)cc1 [Methotrexate]
As for the experimental part: as §1

Compound in a further assay: Nc1ccccc1NC(=O)c1ccc(CNC(=O)OCc2cccnc2)cc1 [Entinostat]
As for the experimental part: as §1

As to PR#014 (EVI1 status: EVI1Low), the “area under dose-response viability curve” value with AR-42 stood at 128; in the assay with Vincristine it was 198; in the assay with Belinostat it was 195; with Daunorubicine, 63.9; with Methotrexate it was 248; in the assay with Entinostat it was 133.
PR#015 (EVI1 status: EVI1Low): the “area under dose-response viability curve” value was determined as 149 with AR-42; 128 with Vincristine; 227 with Belinostat; 37 in the assay with Daunorubicine; 248 with Methotrexate; 145 with Entinostat.
For PR#016 (EVI1 status: EVI1Low), the “area under dose-response viability curve” value is 148 with AR-42; 152 with Vincristine; 156 with Belinostat; 104 with Daunorubicine; 270 with Methotrexate; 159 in the assay with Entinostat.
On to PR#017 (EVI1 status: EVI1Low), for which the “area under dose-response viability curve” value was determined as 163 in the assay with AR-42; 204 with Vincristine; 160 with Belinostat; 89.5 in the assay with Daunorubicine; 237 with Methotrexate; 191 with Entinostat.
Regarding PR#018 (EVI1 status: EVI1Low), the “area under dose-response viability curve” value in the assay with AR-42 amounted to 184; in the assay with Vincristine it was 204; with Belinostat it was 189; in the assay with Daunorubicine, 101; with Methotrexate, 236; with Entinostat it was 211.
PR#019 (EVI1 status: EVI1Low): the “area under dose-response viability curve” value was 208 with AR-42; 203 with Vincristine; 225 with Belinostat; 128 with Daunorubicine; 245 with Methotrexate; 232 in the assay with Entinostat.
Turning to PR#020 (EVI1 status: EVI1Low), the “area under dose-response viability curve” value was determined as 130 with AR-42; 128 in the assay with Vincristine; 246 with Belinostat; 61.9 with Daunorubicine; 248 with Methotrexate; 182 in the assay with Entinostat.
For PR#021 (EVI1 status: EVI1Low), the “area under dose-response viability curve” value with AR-42 stood at 189; in the assay with Vincristine, 195; with Belinostat, 202; in the assay with Daunorubicine it was 122; with Methotrexate, 241; in the assay with Entinostat it was 215.
Consider PR#022 (EVI1 status: EVI1Low), for which the “area under dose-response viability curve” value with AR-42 came to 140; with Vincristine, 175; with Belinostat, 161; with Daunorubicine, 59.5; with Methotrexate, 244; in the assay with Entinostat it was 185.
As to PR#023 (EVI1 status: EVI1High), the “area under dose-response viability curve” value in the assay with AR-42 stood at 139; in the assay with Vincristine it was 140; with Belinostat, 165; with Daunorubicine it was 138; with Methotrexate, 240; in the assay with Entinostat, 162.
Turning to PR#024 (EVI1 status: EVI1High), the “area under dose-response viability curve” value in the assay with AR-42 worked out at 106; in the assay with Vincristine, 97; with Belinostat it was 122; in the assay with Daunorubicine, 66.1; in the assay with Methotrexate, 249; with Entinostat, 167.
Consider PR#025 (EVI1 status: EVI1Low), for which the “area under dose-response viability curve” value with AR-42 was determined as 178; with Vincristine, 214; with Belinostat, 197; with Daunorubicine, 77.4; in the assay with Methotrexate, 247; in the assay with Entinostat, 256.
Regarding PR#026 (EVI1 status: EVI1Low), the “area under dose-response viability curve” value was determined as 155 with AR-42; 90.2 with Vincristine; 189 with Belinostat; 85.1 in the assay with Daunorubicine; 241 in the assay with Methotrexate; 205 in the assay with Entinostat.
For the test system PR#027 (EVI1 status: EVI1Low), the “area under dose-response viability curve” value was 158 with AR-42; 186 with Vincristine; 164 with Belinostat; 63.1 in the assay with Daunorubicine; 262 in the assay with Methotrexate; 197 with Entinostat.
As to PR#028 (EVI1 status: EVI1Low), the “area under dose-response viability curve” value stood at 164 with AR-42; 116 with Vincristine; 182 with Belinostat; 142 with Daunorubicine; 252 in the assay with Methotrexate; 198 with Entinostat.
In the case of PR#029 (EVI1 status: EVI1Low), the “area under dose-response viability curve” value in the assay with AR-42 stood at 167; in the assay with Vincristine, 46.3; in the assay with Belinostat, 221; with Daunorubicine it was 25.4; with Methotrexate, 229; in the assay with Entinostat, 213.
As to PR#030 (EVI1 status: EVI1Low), the “area under dose-response viability curve” value was 158 with AR-42; 147 with Vincristine; 180 with Belinostat; 88.5 with Daunorubicine; 233 with Methotrexate; 237 in the assay with Entinostat.
As to PR#031 (EVI1 status: EVI1Low), the “area under dose-response viability curve” value came out at 189 in the assay with AR-42; 129 with Vincristine; 204 in the assay with Belinostat; 34.9 in the assay with Daunorubicine; 233 in the assay with Methotrexate; 229 in the assay with Entinostat.
On to PR#032 (EVI1 status: EVI1Low), for which the “area under dose-response viability curve” value in the assay with AR-42 was found to be 170; in the assay with Vincristine, 92.1; in the assay with Belinostat it was 148; with Daunorubicine it was 58; with Methotrexate, 258; with Entinostat it was 144.
On to PR#033 (EVI1 status: EVI1Low), for which the “area under dose-response viability curve” value was determined as 154 with AR-42; 147 with Vincristine; 178 in the assay with Belinostat; 36.2 with Daunorubicine; 226 with Methotrexate; 183 with Entinostat.

Values taken from the supplement of paper PMC11150407.
